Data published in patent US8785460B2, “Tricyclic compounds and use thereof” (Takeda Pharmaceutical Company Limited, priority 2008, dated 2014).

Tests used:
human CRF1 receptor = target: T1, human CRF1 receptor (Homo sapiens, UniProt P34998); experiment: Measurement of CRF Binding Inhibitory Rate (receptor binding experiment with 125I-CRF); settings: human CRF1 receptor expressing CHO cellular membrane fraction, 50 pM 125I-CRF, room temperature 1.5 hr, 0.05 nM to 10 μM of compound; read-out: IC50 values (CRF binding inhibition)
T1 construct: expressed in transfected cells; host or cells: CHO cells (membrane fraction)
T1 sequence (P34998 24-415): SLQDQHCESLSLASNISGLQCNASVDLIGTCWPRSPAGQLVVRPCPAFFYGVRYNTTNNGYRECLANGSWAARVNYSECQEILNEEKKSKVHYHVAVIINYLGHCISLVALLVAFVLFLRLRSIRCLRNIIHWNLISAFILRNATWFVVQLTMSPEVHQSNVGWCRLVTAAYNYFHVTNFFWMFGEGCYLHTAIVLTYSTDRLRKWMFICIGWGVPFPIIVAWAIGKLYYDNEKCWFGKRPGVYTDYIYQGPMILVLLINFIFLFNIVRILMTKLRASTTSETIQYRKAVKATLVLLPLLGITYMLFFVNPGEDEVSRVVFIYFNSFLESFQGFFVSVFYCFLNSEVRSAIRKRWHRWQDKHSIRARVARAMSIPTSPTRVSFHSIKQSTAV

Row | SMILES | melting point [°C] | IC50 (human CRF1 receptor) [nM]
1 | CCC(OCC1CC1)c1ccc(Cl)c2nc3n(c12)CCCN3c1ccc(Cl)cc1Cl (stereo not drawn) [Example 236, 9-Chloro-6-[1-(cyclopropylmethoxy)propyl]-1-(2,4-dichlorophenyl)-1,2,3,4-tetrahydropyrimido[1,2-a]benzimidazole] | 159 to 160 | < 1000
2 | CCC(=O)OC(CC)c1ccc(Cl)c2nc3n(c12)CCCN3c1ccc(Cl)cc1Cl (stereo not drawn) [Example 241, 1-[9-Chloro-1-(2,4-dichlorophenyl)-1,2,3,4-tetrahydropyrimido[1,2-a]benzimidazol-6-yl]propyl propanoate] | 133 to 135 | < 1000
3 | CC(=O)OC(C)c1ccc(Cl)c2nc3n(c12)CCCN3c1ccc(Cl)cc1Cl (stereo not drawn) [Example 243, 1-[9-Chloro-1-(2,4-dichlorophenyl)-1,2,3,4-tetrahydropyrimido[1,2-a]benzimidazol-6-yl]ethyl acetate] | 204 to 206 | < 1000
4 | CC(=O)OC(c1ccc(Cl)c2nc3n(c12)CCCN3c1ccc(Cl)cc1Cl)C1CC1 (stereo not drawn) [Example 244, [9-Chloro-1-(2,4-dichlorophenyl)-1,2,3,4-tetrahydropyrimido[1,2-a]benzimidazol-6-yl](cyclopropyl)methyl acetate] | 208 to 210 | < 1000
5 | CCC(OC(C)=O)c1ccc(Cl)c2nc3n(c12)CCCN3c1ccc(C(C)=O)cc1Cl (stereo not drawn) [Example 250, 1-[1-(4-Acetyl-2-chlorophenyl)-9-chloro-1,2,3,4-tetrahydropyrimido[1,2-a]benzimidazol-6-yl]propyl acetate] | 183 to 186 | < 1000
6 | CCC(OC(C)=O)c1ccc(Cl)c2nc3n(c12)CCCN3c1ccc(C(C)(C)O)cc1Cl (stereo not drawn) [Example 252, 1-{9-Chloro-1-[2-chloro-4-(1-hydroxy-1-methylethyl)phenyl]-1,2,3,4-tetrahydropyrimido[1,2-a]benzimidazol-6-yl}propyl acetate] | 184 to 186 | < 1000
7 | CCC(OC(C)=O)c1ccc(Cl)c2nc3n(c12)CCCN3c1ccc(OC)cc1Cl (stereo not drawn) [Example 260, 1-[9-Chloro-1-(2-chloro-4-methoxyphenyl)-1,2,3,4-tetrahydropyrimido[1,2-a]benzimidazol-6-yl]propyl acetate] | 178 to 180 | < 1000
8 | CCC(OC(=O)C1CC1)c1ccc(Cl)c2nc3n(c12)CCCN3c1ccc(OC)nc1C (stereo not drawn) [Example 268, 1-[9-Chloro-1-(6-methoxy-2-methylpyridin-3-yl)-1,2,3,4-tetrahydropyrimido[1,2-a]benzimidazol-6-yl]propyl cyclopropanecarboxylate] | 149 to 151 | < 1000
9 | CCOC(CC)c1ccc(Cl)c2nc3n(c12)CCCN3c1ccc(OC)nc1C (stereo not drawn) [Example 269, 9-Chloro-6-(1-ethoxypropyl)-1-(6-methoxy-2-methylpyridin-3-yl)-1,2,3,4-tetrahydropyrimido[1,2-a]benzimidazole] | 174 to 176 | < 1000
10 | CCC(OCC(F)(F)F)c1ccc(Cl)c2nc3n(c12)CCCN3c1ccc(OC)nc1C (stereo not drawn) [Example 272, 9-Chloro-1-(6-methoxy-2-methylpyridin-3-yl)-6-[1-(2,2,2-trifluoroethoxy)propyl]-1,2,3,4-tetrahydropyrimido[1,2-a]benzimidazole] | 124 to 126 | < 1000
11 | CCC(OCC(F)F)c1ccc(Cl)c2nc3n(c12)CCCN3c1ccc(OC)nc1C (stereo not drawn) [Example 273, 9-Chloro-6-[1-(2,2-difluoroethoxy)propyl]-1-(6-methoxy-2-methylpyridin-3-yl)-1,2,3,4-tetrahydropyrimido[1,2-a]benzimidazole] | 130 to 132 | < 1000
12 | COc1ccc(N2CCCn3c2nc2c(Cl)ccc(C(O)(C4CC4)C4CC4)c23)c(C)n1 [Example 276, [9-Chloro-1-(6-methoxy-2-methylpyridin-3-yl)-1,2,3,4-tetrahydropyrimido[1,2-a]benzimidazol-6-yl](dicyclopropyl)methanol] | 208 to 210 | < 1000
13 | COc1ccc(N2CCCn3c2nc2c(Cl)ccc(C(OCC(F)(F)F)C4CC4)c23)c(C)n1 (stereo not drawn) [Example 277, 9-Chloro-6-[cyclopropyl (2,2,2-trifluoroethoxy)methyl]1-(6-methoxy-2-methylpyridin-3-yl)-1,2,3,4-tetrahydropyrimido[1,2-a]benzimidazole] | 158 to 160 | < 1000
14 | COc1ccc(N2CCCn3c2nc2c(Cl)ccc(C(OCC(F)F)C4CC4)c23)c(C)n1 (stereo not drawn) [Example 278, 9-Chloro-6-[cyclopropyl(2,2-difluoroethoxy)methyl]-1-(6-methoxy-2-methylpyridin-3-yl)-1,2,3,4-tetrahydropyrimido[1,2-a]benzimidazole] | 124 to 126 | < 1000
15 | COc1ccc(N2CCCn3c2nc2c(Cl)ccc(C(OC)C(F)(F)F)c23)c(C)n1 (stereo not drawn) [Example 280, 9-Chloro-1-(6-methoxy-2-methylpyridin-3-yl)-6-(2,2,2-trifluoro-1-methoxyethyl)-1,2,3,4-tetrahydropyrimido[1,2-a]benzimidazole] | 144 to 146 | < 1000
16 | CCCOc1ccc(N2CCCn3c2nc2c(Cl)ccc(C(OC(F)F)C(F)(F)F)c23)c(C)n1 (stereo not drawn) [Example 289, 9-Chloro-6-[1-(difluoromethoxy)-2,2,2-trifluoroethyl]-1-(2-methyl-6-propoxypyridin-3-yl)-1,2,3,4-tetrahydropyrimido[1,2-a]benzimidazole] | 156 to 158 | < 1000
17 | Cc1nc(OC(F)F)ccc1N1CCCn2c1nc1c(Cl)ccc(C(OC(F)F)C(F)(F)F)c12 (stereo not drawn) [Example 290, 9-Chloro-1-[6-(difluoromethoxy)-2-methylpyridin-3-yl]-6-[1-(difluoromethoxy)-2,2,2-trifluoroethyl]-1,2,3,4-tetrahydropyrimido[1,2-a]benzimidazole] | 145 to 148 | < 1000
18 | Cc1nc(C#N)ccc1N1CCCn2c1nc1c(Cl)ccc(C(OC(F)F)C(F)(F)F)c12 (stereo not drawn) [Example 292, 5-{9-Chloro-6-[1-(difluoromethoxy)-2,2,2-trifluoroethyl]-3,4-dihydropyrimido[1,2-a]benzimidazol-1(2H)-yl}-6-methylpyridine-2-carbonitrile] | 177 to 180 | < 1000
19 | Cc1nc(N(C)C)ccc1N1CCCn2c1nc1c(Cl)ccc(C(OC(F)F)C(F)(F)F)c12 (stereo not drawn) [Example 298, 5-{9-Chloro-6-[1-(difluoromethoxy)-2,2,2-trifluoroethyl]-3,4-dihydropyrimido[1,2-a]benzimidazol-1(2H)-yl}-N,N,6-trimethylpyridin-2-amine] | 233 to 235 | < 1000
20 | CCC(F)c1ccc(Cl)c2nc3n(c12)CCCN3c1ccc(Cl)cc1Cl (stereo not drawn) [Example 304, 9-Chloro-1-(2,4-dichlorophenyl)-6-(1-fluoropropyl)-1,2,3,4-tetrahydropyrimido[1,2-a]benzimidazole] | 172 to 174 | < 1000
21 | CCC(OC1CC1)c1ccc(Cl)c2nc3n(c12)CCCN3c1ccc(Cl)cc1Cl (stereo not drawn) [Example 306, 9-Chloro-6-[1-(cyclopropyloxy)propyl]-1-(2,4-dichlorophenyl)-1,2,3,4-tetrahydropyrimido[1,2-a]benzimidazole] | 147 to 149 | < 1000
